Reference: patent US20230165843A1, “USE AND PHARMACEUTICAL COMPOSITION OF PHENYLISOXAZOLYL METHYLENE-NAPHTHALENE-ETHER DERIVATIVES” (priority 2019, published 2023)

Key:
HBV (rAAV8-1.3HBV) = test: AAV/HBV Mouse Model; assay type: in vivo, mice
From the text: AAV/HBV Mouse Model and Compound Treatment
Male C57BL′6 mice of 5-week old (obtained from Shanghai Jihui Laboratory Animal Care Co., Ltd) were given rAAV8-1.3HBV (1×1011 v.g.) via tail vein to establish infection on Day −28. After 14 days, 21 days, and on Day −4, blood was drawn from submandibular vein to determine the level of HBV DNA, and HBsAg. On Day-4, 40 mice were chosen based on HBV DNA, and HBsAg results, and were randomly assigned to 5 groups. After the mice were infected with HBV virus for 28 days, treatment was given orally once per day, for 4 weeks. Group 1 was given vehicle (0.5% CMC-Na, 10 ml/kg), Group 2 was given positive control ETV (0.1 mg/kg). Groups 3, 4, and 5 were given Compound 33 at 10 mg/kg, 30 mg/kg, and 60 mg/kg, respectively. Blood was drawn from submandibular vein every week to determine the concentration of HBV DNA, HBV RNA, and HBsAg. On Day 28, blood was taken from the heart.
HBV DNA determination by qPCR. DNA in the mice plasma was isolated with the QIAamp 96 DNA Blood Kit according to the manual and quantified by the qPCR, and performed using the following program: 95C for 10 min, then cycling at […] 15 sec, 60° C. 1 min for 40 cycles.
HBV RNA determination by qPCR. RNA in the mice plasma was isolated with the PureLink™ Pro 96 Viral RNA/DNA Kit according to the manual. 20 μl of the plasma was used to extract RNA
HBsAg determination by ELISA. HBsAg in the samples was measured by the HBsAg ELISA kit (Autobio) according to the manual. Briefly, after the plasma was diluted 1200× in a coated plate, and incubate with the enzyme conjugated ([…], 60 min), and the plate was washed 5 time. Substrate was added, and it was kept from light at room temperature for 10 min and intensity was measured by a plated reader.
Average±Standard deviation was calculated for each group, and analyzed with Student's t-test.

HBV (D type) = test: PHH (Primary Human Hepatocyte) Assay, HBV infection; assay type: cell-based, hepatitis B virus; details: PHH cells infected with HBV (D type); for inhibition of HBV RNA: culture supernatant day 9, RT-qPCR, FIG. 3; for inhibition of extracellular HBV DNA: culture supernatant day 9, qPCR, FIG. 1; for inhibition of HBsAg: culture supernatant day 9, FIG. 2
Procedure: PHH (Primary Human Hepatocyte) Assay: Cell Line and Compound Treatment
The PHH cells were seeded into the 48-well plates at the density of 1.32×10^5 cells/well. The PHH cells seeding date was defined as day 0. The PHH cells were infected with HBV (D type) at 1600 GE/cell on day 1. The culture medium containing compounds was refreshed on day 2, 4, 6 and day 8. On day 9, the cells were treated with CCK8 and culture supernatant and cells were collected.
FXR Compounds were tested at 10000.0, 3000.0, 1000.0, 300.0, 100.0, 30.0, and 10.0 nM, and ETV was tested at 0.2000, 0.0667, 0.0222, 0.0074, 0.0025, 0.0008, and 0.0003 nM. 1% DMSO was used as non-treatment control. The supernatants on day 9 were collected, and analyzed for HBV DNA by qPCR, HBV RNA by RT-qPCR, HBsAg and HBeA by ELISA.
DNA in the culture supernatants was isolated with the QIAamp 96 DNA Blood Kit according to the manual and quantified by the qPCR. 80 μl of the culture supernatants sample was used to extract DNA. The elution volume was 120 μl. The PCR mix (8 μl/well) and the samples (2 μl/well) or plasmid standards (2 μl/well) were added to the 384-well optical reaction plate and performed using the following program: 95C for 10 min, then cycling at 95° C. 15 sec, 60° C. 1 min for 40 cycles.
RNA in the culture supernatants was isolated with the PureLink™ Pro 96 Viral RNA Kit according to the manual. 35 μl of the culture supernatants sample was used to extract RNA. The elution volume was 100 μl. HBV RNA was quantified by RT-qPCR.
For HepG2-NTCP Assay, HBsAg and HBeAg in the samples harvested on day 9 were measured by the HBsAg ELISA kit (Autobio) and HBeAg ELISA kit (Autobio) according to the manual. For PHH assay, Chemiluminescence Apparatu was used to measure HBsAg according to the Antu HBsAg ELISA kit manual.
% HBV DNA inhibition=(1−HBV DNA copy number of test sample/avg. HBV DNA copy number of 1% DMSO control)×100%
% HBV RNA inhibition=(1−HBV RNA copy number of test sample/avg. HBV RNA copy number of 1% DMSO control)×100%
% HBsAg inhibition=(1−HBsAg quantity of sample/HBsAg quantity of 1% DMSO control)×100%
The EC50 and CC50 values were determined by dose-response curves fitted by GraphPad Prism using “log (agonist) vs. response-variable slope”.

[1] = positive control 0.1 mg/kg orally once per day, 4 weeks

Structure (SMILES) | HBsAg, lowered as compared to the vehicle group (HBV (rAAV8-1.3HBV); high dose group 60 mg/kg orally once per day, 28 days, FIG. 6) | HBV RNA, lower than the vehicle group (HBV (rAAV8-1.3HBV); high dose group 60 mg/kg orally once per day, 28 days, significantly lower than vehicle (p<0.01), FIG. 5) | HBV DNA, lower than the vehicle group (HBV (rAAV8-1.3HBV); high dose group 60 mg/kg orally once per day, 28 days, significantly lower than vehicle (p<0.05), FIG. 4) | inhibition of HBV RNA (HBV (D type)) | inhibition of extracellular HBV DNA (HBV (D type)) | inhibition of HBsAg (HBV (D type)) | effect on HBV RNA as compared to the vehicle group (HBV (rAAV8-1.3HBV); [1]) | effect on HBsAg as compared to the vehicle group (HBV (rAAV8-1.3HBV); [1])
O=C([O-])c1ccc(Oc2ccc3cc(OCc4c(-c5c(Cl)cccc5Cl)noc4C4CC4)ccc3c2)nc1.[Na+] [Compound 33, Sodium 6-((6-((5-cyclopropyl-3-(2,6-dichlorophenyl)isoxazol-4-yl)methoxy)naphthalen-2-yl)oxy)nicotinate] | 0.38 log 10 [IU/ml] | 0.60-0.66 log 10[RNA copy/uL] | 0.77-1.12 log 10[DNA copy/uL] | – | – | – | – | –
O=C(O)c1ccc(Oc2cccc3cc(OCc4c(-c5c(Cl)cccc5Cl)noc4C4CC4)ccc23)nc1 [Compound 22, 6-((6-((5-cyclopropyl-3-(2,6-dichlorophenyl)isoxazol-4-yl)methoxy)naphthalen-1-yl)oxy)nicotinic acid] | – | – | – | dose-dependent inhibition | dose-dependent inhibition | dose-dependent inhibition | – | –
C=C1[C@H](CO)[C@@H](O)C[C@@H]1n1cnc2c(=O)[nH]c(N)nc21 [ETV, entecavir, reference compound] | – | – | – | no significant inhibition | significant inhibition | no significant inhibition | no significant effect | no significant effect
Cc1nc(Oc2cccc3cc(OCc4c(-c5c(Cl)cccc5Cl)noc4C4CC4)ccc23)ccc1C(=O)O [Compound 27, 6-((6-((5-cyclopropyl-3-(2,6-dichlorophenyl)isoxazol-4-yl)methoxy)naphthalen-1-yl)oxy)-2-methylnicotinic acid] | – | – | – | dose-dependent inhibition | dose-dependent inhibition | dose-dependent inhibition | – | –
O=C(O)c1ccc(Oc2ccc3cc(OCc4c(-c5c(Cl)cccc5Cl)noc4C4CC4)ccc3c2)nc1 [Compound 1, 6-((6-((5-cyclopropyl-3-(2,6-dichlorophenyl)isoxazol-4-yl)methoxy)naphthalen-2-yl)oxy)nicotinic acid] | – | – | – | dose-dependent inhibition | dose-dependent inhibition | dose-dependent inhibition | – | –
